Consider one compound from US12121518B2, “PARP-1 and methods of use thereof” (The Board of Supervisors of Louisiana State University and …, priority 2017, dated 2024).

This assay deals with MC-38 cell-based tumors. Briefly: MC-38 cell-based syngeneic colon cancer mouse model. It is filed as in vivo. An excerpt:
Mice that received vehicle increased in size in a time-dependent manner and were sacrificed at day 16.
For the syngeneic tumor models, six to eight weeks old WT, PARP-1^+/−, or PARP-1^−/− mice were subcutaneously inoculated with 2.5×10^5 MC-38 cells. In some experiments, MC-38 cells transfected with p193-PGK-SB100X and pKT2PGK-BsdGFP_CLP-Luc plasmids (flanked by Sleeping Beauty transposons) and sorted by FACS. Selected cells were then engrafted onto mice as described above. When tumors became palpable (at day 4-6), WT mice were randomized and assigned to the different experimental groups. […] Tumor volumes were measured with a digital caliper or assessed using GFP/Luc-Biophotonic Imaging (Xenogen IVIS200, PerkinElmer, Boston, MA). Tumors were measured by the greatest longitudinal diameter (length) and the greatest transverse diameter (width) using a digital caliper. Tumor volumes were calculated using the following formula: tumor volume=(length×width^2)/2. For luciferase imaging, tumor-bearing mice received 150 mg/kg of D-luciferin potassium salt solution (PerkinElmer, Boston, MA) i.p. five minutes prior to anesthetic induction and imaging. Bioluminescence within a predetermined region of interest (ROI) on each mouse was quantified in photons/sec/cm^2/sr. At the end of the protocol (day 20-24), mice were sacrificed and tumors were harvested for further processing and analysis. For the adoptive transfer experiments, 3×10^6 BM-MDSCs derived from WT mice or vehicle were injected, intratumorally, into WT or PARP-1^+/− mice. The MDSCs were delivered at five injection sites at days 8 and 16 following engraftment of MC-38 cells.
Tissue processing, immunohistochemistry, immunofluorescence and cytokines measurement—Some tissues were fixed in buffered formalin (10%), paraffin-embedded, then sectioned. Serial sections were subjected to H&E staining, immunohistochemistry (IHC) or immunofluorescence, as described (33), with antibodies to PCNA (Novusbio, Littleton, CO), COX-2 (Santa Cruz Biotechnology, Santa Cruz, CA), ICAM-1 (Santa Cruz Biotechnology), CD8 (Santa Cruz Biotechnology), or Gr1 (eBioscience, San Diego, USA) as previously described (34). Some of the sections were subjected to immunofluorescence with antibodies to CD8 or Gr1. Blood, collected by cardiac puncture, was run through a Microtainer Serum Separator tube (BD, Franklin Lake, NJ). The collected sera were immediately stored at −80° C. for future use and analysis. Cytokine levels were assessed for TNF-α (ELM-TNFα-1), IL-6 (ELM-IL-6-1), and MCP-1 (ELM-MCP1) by ELISA (all from RayBiotech, Norcross, GA) according to the manufacturer's instructions and recommendations.

The structures appear in SMILES notation. “Also recorded” adds a separate entry of the source.

Take `O=C(c1cc(Cc2n[nH]c(=O)c3ccccc23)ccc1F)N1CCN(C(=O)C2CC2)CC1` [olaparib]: the tumor size result (0.2 mg/kg, WT mice, from palpable tumors) is “barely increased above the size the tumors at the day 5; also recorded: more effective at reducing the tumor burden”; the tumor size result (1 mg/kg, WT mice, from palpable tumors (day 6)) was “very effective at blocking tumor growth”; the tumor size result (5 mg/kg, WT mice, from palpable tumors) is “relatively smaller than those of WT; also recorded: significant reduction in the size of MC-38 cell-based tumors”. In addition, the “tumor progression (tumor volume)” value (WT mice, olaparib 0.2 mg/kg on alternate days, anti-PD-1 100 μg/mouse every 4 days, alone or combined) was “significantly reduced the progression of MC-38 tumors”. Further, the “intratumoral ICAM-1 immunoreactivity as a surrogate for inflammation” value (both doses (0.2 and 5 mg/kg)) is given as “reduction in inflammation”. The “systemic inflammation (TNF-α, IL-6 and MCP-1 in sera)” value (both doses (0.2 and 5 mg/kg)) was “moderately reduced”.
